Reference: patent publication US20200087248A1, “Fluoroallylamine Derivative And Use Thereof” (SICHUAN KELUN-BIOTECH BIOPHARMACEUTICAL CO., LTD., priority 2017, published 2020)
Where a name gives a salt, the structure may show the parent alone.

Columns and labels:
[1] = biological target: T1, VAP-1 in abdominal fat of mice (Mus musculus, UniProt O70423); assay: Inhibition of the enzymatic activity of VAP-1 ex-vivo, abdominal fat after oral dosing; format: in vivo, BALBc mice; conditions: 0.5 mg/kg oral, abdominal fat collected after six hours; for inhibition at 0.5 mg/kg: mouse, read-out: Inhibition rate (%) against the enzymatic activity of VAP-1 (ex-vivo)
T1 construct: abdominal fat was collected and homogenized; from tissue; host or cells: abdominal fat of BALBc mice (homogenate supernatant)
T1 sequence (O70423 1-765): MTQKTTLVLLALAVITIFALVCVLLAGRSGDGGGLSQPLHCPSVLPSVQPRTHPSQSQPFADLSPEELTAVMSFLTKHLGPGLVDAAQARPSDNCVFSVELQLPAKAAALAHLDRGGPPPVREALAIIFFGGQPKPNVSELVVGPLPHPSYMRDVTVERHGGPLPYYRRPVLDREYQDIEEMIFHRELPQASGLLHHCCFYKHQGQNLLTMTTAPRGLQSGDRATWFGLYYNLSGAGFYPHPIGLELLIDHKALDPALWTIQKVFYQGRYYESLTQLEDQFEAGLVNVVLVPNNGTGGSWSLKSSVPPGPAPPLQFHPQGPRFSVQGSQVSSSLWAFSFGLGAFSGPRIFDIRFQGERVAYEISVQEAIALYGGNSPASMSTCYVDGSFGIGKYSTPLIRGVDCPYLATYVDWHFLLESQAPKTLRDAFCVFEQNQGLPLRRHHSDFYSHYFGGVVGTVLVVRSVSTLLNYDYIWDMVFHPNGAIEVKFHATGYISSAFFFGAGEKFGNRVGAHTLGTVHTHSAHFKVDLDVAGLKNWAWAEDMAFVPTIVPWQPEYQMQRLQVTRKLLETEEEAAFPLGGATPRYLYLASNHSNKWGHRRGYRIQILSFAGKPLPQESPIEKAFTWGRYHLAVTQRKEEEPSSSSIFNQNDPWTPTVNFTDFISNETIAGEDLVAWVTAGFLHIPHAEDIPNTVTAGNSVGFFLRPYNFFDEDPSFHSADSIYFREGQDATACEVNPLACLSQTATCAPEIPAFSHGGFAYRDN
Experimental: Inhibition Experiment Against the Enzymatic Activity (ex-vivo)
Tissue homogenate buffer solution (20 mM HEPES, pH 7.2, 1 mM EDTA, 250 mM sucrose, PMSF 0.2 mM)
Reaction buffer solution: 50 mM PBS, pH 7.4
Test kit: Amplex® Red Monoamine Oxidase Assay, Manufacturer: ThermoFisher
BALBc mice were administrated orally with different doses of the test compound, and the vehicle group was used as the control group. After six hours, abdominal fat was collected and homogenized at 1:20 (w/v) with the pre-cooled homogenate buffer solution, and thereafter, the homogenate was centrifuged at 10,000 g and 4° C. or 10 minutes, the supernatant was collected and stored at -80° C. for further use.
A test sample was diluted with the reaction buffer solution and successively added with the inhibition solution A: 1 μM Clorgyline+1 μM pargylin, to inhibit the activities of MAO-A and MAO-B, and the inhibition solution B: 1 μM Clorgyline+1 μM Pargylin+1 μM Mofegiline as the blank control, and after being incubated at room temperature for 20 min, 500 μM benzylamine hydrochloride, 1 U/mL HRP and 200 μM Amplex Red reagent were added to start the reaction. By referring to the method in “Experiment of inhibiting the enzymatic activity of VAP-1”, relative activity of each dose group was calculated, wherein the ratio of the fluorescent signal to reaction time in the linear range is the reaction rate, and the vehicle group is the positive control, thereby to study the inhibition of the compound against the enzymatic activity of VAP-1 in abdominal fat of mice.

[2] = biological target: T2, CYP1A2 (Homo sapiens, UniProt P05177); assay: Inhibition of cytochrome P450 isoenzyme CYP1A2 (P450-Glo); format: in vitro ADME; conditions: estimated from inhibition rates at 10 μM and 1 μM
T2 construct: purchased Promega
T2 sequence (P05177 1-516): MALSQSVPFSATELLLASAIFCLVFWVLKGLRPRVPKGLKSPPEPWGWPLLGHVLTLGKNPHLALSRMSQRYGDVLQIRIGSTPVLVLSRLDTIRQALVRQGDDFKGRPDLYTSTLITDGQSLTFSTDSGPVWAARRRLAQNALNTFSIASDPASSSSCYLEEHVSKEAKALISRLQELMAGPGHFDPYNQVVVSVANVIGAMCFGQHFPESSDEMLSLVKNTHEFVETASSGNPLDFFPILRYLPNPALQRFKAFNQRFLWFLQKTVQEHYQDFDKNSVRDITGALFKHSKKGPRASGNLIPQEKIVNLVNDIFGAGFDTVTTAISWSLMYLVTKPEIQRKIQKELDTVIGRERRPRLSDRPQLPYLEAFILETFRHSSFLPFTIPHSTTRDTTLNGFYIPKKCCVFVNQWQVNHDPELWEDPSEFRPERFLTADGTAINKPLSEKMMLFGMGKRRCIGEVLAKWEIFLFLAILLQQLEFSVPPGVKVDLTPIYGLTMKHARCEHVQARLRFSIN
Experimental: (§1) Inhibition Experiment Against Cytochrome P450 Isoenzyme (CYP)
P450-Glo™ CYP1A2 Screening System, manufacturer: Promega
(§2) According to the specification of the test kit, 10 nM CYP1A2, 5 nMCYP2D6, and 1 nM CYP3A4 proteins and corresponding substrates (100 μM, 30 μM, 3 μM) as well as the compound were pre-incubating respectively for 10 min, G6PDH-G6P-NADP regeneration system was added to start the reaction, a test reagent was added later, after 20 min, the chemical luminescent signals were detectted.
(§3) Percent inhibition rate (%)=(1-(signal of each compound concentration group-signal of the blank group)/(signal of the negative control-signal of the blank group))*100.
(§4) According to the inhibition rates of the compound at different concentrations against P450 enzyme, the half inhibition concentration (IC5o) or range was estimated.
(§5) IC50=X*(1-percent inhibition rate (%))/percent inhibition rate (%), wherein, X is the test concentration of the compound.
(§6) According to the above method, the inhibition of the compound at the concentrations 10 μM, and 1 μM, against three CYPs were measured, and the results were shown in the following Tables 10-12: […]

[3] = biological target: T3, CYP2D6 (Homo sapiens, UniProt P10635); assay: Inhibition of cytochrome P450 isoenzyme CYP2D6 (P450-Glo); format: in vitro ADME; conditions: estimated from inhibition rates at 10 μM and 1 μM; for IC50: read-out: IC50, inhibition against CYP2D6
T3 construct: purchased Promega
T3 sequence (P10635 whole entry): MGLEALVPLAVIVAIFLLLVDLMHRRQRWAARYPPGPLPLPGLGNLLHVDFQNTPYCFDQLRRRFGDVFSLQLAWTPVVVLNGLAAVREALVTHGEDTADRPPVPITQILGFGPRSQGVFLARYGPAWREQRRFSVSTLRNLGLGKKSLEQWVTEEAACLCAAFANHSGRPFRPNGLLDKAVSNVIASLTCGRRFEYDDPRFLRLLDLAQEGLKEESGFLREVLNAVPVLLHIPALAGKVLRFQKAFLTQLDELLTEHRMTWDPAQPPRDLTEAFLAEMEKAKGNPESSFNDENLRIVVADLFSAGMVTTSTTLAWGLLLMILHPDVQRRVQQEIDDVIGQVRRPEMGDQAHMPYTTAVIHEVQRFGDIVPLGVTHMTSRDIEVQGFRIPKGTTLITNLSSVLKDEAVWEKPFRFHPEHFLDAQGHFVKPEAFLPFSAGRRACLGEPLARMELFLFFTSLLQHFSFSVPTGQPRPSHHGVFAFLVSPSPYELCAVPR
Experimental: as §1
P450-Glo™ CYP2D6 Screening System, manufacturer: Promega
as §2, §3, §4, §5, §6

[4] = biological target: T4, CYP3A4 (Homo sapiens, UniProt P08684); assay: Inhibition of cytochrome P450 isoenzyme CYP3A4 (P450-Glo); format: in vitro ADME; conditions: estimated from inhibition rates at 10 μM and 1 μM; for IC50: read-out: IC50, inhibition against CYP3A4
T4 construct: purchased Promega
T4 sequence (P08684 whole entry): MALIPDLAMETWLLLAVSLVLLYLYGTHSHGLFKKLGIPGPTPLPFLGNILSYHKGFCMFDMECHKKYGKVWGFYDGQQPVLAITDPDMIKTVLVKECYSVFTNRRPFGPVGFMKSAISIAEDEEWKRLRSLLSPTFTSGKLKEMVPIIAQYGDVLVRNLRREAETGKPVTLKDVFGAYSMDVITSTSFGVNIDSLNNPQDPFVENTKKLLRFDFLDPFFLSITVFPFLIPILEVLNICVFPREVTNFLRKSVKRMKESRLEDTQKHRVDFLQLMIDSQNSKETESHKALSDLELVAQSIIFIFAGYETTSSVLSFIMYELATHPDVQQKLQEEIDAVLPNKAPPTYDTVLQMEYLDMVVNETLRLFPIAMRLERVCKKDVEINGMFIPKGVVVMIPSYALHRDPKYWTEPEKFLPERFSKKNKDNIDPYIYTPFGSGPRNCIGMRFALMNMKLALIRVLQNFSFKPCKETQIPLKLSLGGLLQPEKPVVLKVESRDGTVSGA
Experimental: as §1
P450-Glo™ CYP3A4 Screening System, manufacturer: Promega
as §2, §3, §4, §5, §6

| inhibition at 0.5 mg/kg [1] [%] | Compound | Inhibition rate (%) against the enzymatic activity of VAP-1 (ex-vivo) [1] [%] | IC50, inhibition against CYP1A2 [2] | IC50, inhibition against CYP2D6 [3] | IC50 [3] [µM] | IC50, inhibition against CYP3A4 [4] | IC50 [4] [µM] | IC50 ([2]; read-out: IC50, inhibition against CYP1A2) [µM] |
| --- | --- | --- | --- | --- | --- | --- | --- | --- |
| 96.7 ± 2.2 | NC/C(=C\F)COc1ccc(C(=O)Nc2ccccc2)cc1 [TM1-E, (E)-N-phenyl-4-((2-aminomethyl-3-fluoroallyl)oxy)-benzamide trifluoroacetate] | – | – | – | – | – | – | – |
| 86.6 ± 5.5 | NC/C(=C/F)COc1ccc2c(c1)CCNC2=O [TM26-Z, (Z)-6-((2-aminomethyl-3-fluoroallyl)oxy)-3,4-dihydroisoquinolin-1(2H)-one trifluoroacetate] | – | – | – | – | – | – | – |
| 93 ± 2.7 | NC/C(=C\F)COc1ccc(-c2ncccn2)cc1 [TM39-E, (E)-2-(4-(2-pyrimidyl)phenoxymethyl)-3-fluoroallylamine trifluoroacetate] | – | – | – | – | – | – | – |
| – | (E)-6-((2-(methylamino)-3-fluoroallyl)oxy)-2-methyl-3,4-dihydroisoquinolin-1(2H)-one trifluoroacetate [TM66-E] | 92.3 ± 1.9 | do not have significant inhibitions | do not have significant inhibitions | > 10 | do not have significant inhibitions | > 10 | – |
| – | (E)-6-((2-(methylamino)-3-fluoroallyl)oxy)-3,3-dimethyl-3,4-dihydro-isoquinolin-1(2H)-one trifluoroacetate [TM38-E] | 92.7 ± 3.0 | do not have significant inhibitions | do not have significant inhibitions | > 10 | do not have significant inhibitions | > 10 | 6.73 ± 0.39 |
